Tested on: choroidal neovascularization
Test: choroidal NV in a mouse model, topical administration
Format: in vivo
Settings: applicant's previous findings

NC(=O)Cc1cccc(C(=O)c2ccccc2)c1N [nepafenac]
choroidal NV: inhibited

Reference: patent US20050143468A1, “Method of treating vascular endothelial growth factor mediated vascular disorders” (priority 2002, published 2005)
